Source: patent US5110831A, “Vinylogous hydroxamic acids and derivatives thereof as 5-lipoxygenase inhibitors” (Du Pont Merck Pharmaceutical Company, priority 1990, dated 1992)

Test system: inflammatory cells such as polymorphonuclear leukocytes
Assay: not given
Settings: cited from earlier work

| SMILES | chemotactic activity for inflammatory cells |
| --- | --- |
| CCCCC/C=C\C[C@@H](O)/C=C/C=C/C=C\[C@@H](O)CCCC(=O)O [LTB4] | potent chemotactic factors |

Molecular target: T1, RBL-1 5-Lipoxygenase (Rattus norvegicus, UniProt P12527)
T1 construct: supernatant from homogenized RBL-1 cells; endogenous in cells; host or cells: RBL-1 cells (10,000×g supernatant of homogenate)
T1 sequence (P12527 1-673): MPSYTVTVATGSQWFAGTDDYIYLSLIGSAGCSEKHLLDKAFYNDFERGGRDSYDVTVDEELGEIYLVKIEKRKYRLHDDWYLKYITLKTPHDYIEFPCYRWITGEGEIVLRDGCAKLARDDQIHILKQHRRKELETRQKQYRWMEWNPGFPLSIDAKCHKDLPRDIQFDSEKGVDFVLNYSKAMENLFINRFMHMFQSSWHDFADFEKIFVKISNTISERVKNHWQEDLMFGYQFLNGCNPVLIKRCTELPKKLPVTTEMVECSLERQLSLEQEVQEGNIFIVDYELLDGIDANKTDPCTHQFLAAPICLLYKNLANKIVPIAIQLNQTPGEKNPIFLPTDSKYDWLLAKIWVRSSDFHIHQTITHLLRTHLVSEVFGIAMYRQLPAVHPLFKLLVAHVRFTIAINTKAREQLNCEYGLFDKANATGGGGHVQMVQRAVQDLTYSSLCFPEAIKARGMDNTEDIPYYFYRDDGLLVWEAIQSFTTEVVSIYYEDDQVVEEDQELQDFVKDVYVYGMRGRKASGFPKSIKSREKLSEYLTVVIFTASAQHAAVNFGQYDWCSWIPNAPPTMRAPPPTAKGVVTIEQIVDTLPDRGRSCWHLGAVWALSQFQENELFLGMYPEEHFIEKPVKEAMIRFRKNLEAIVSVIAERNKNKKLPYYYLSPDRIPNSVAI
Assay: RBL-1 5-lipoxygenase assay (10,000×g supernatant from homogenized RBL-1 cells, [14C] arachidonic acid)
Type: biochemical
Settings: pH 7.0, 37° C., 5 min preincubation, 0.042 mM arachidonic acid; linear regression on three concentrations
Experimental: The potencies of the compounds as 5-lipoxygenase inhibitors were determined using a RBL-1 5-lipoxygenase assay. The procedure of Jakschik et al. was used (Jakschik, B. A.; Lee, L. H.; Shuffer, G.; Parker, C. W., Prostaglandins, 1978, 16, 733; Jakschik, B. A.; Sun, F. F.; Lee, L. H.; Steinhoff, M. M. Biochem. Biophys. Res. Commun., 1980, 95, 100; […]., Biochem. Biophys. Res. Commun., 1981, 102, 624). The enzyme was prepared as a 10,000×gsupernatant from homogenized RBL-1 cells. Because of variability in the enzyme content from culture to culture, an amount of supernatant was chosen to give a net production of 3300-3800 dpm of 5-HETE under the assay conditions (total cell protein 9-20 μg/assay). All reactions were run in duplicate. In a total volume of 100 μL, the appropriate amount of enzyme was incubated with test compound (prepared in 5% DMSO, 95% 0.2 M Tris, pH 8.5) in a phosphate buffer (45 mM sodium phosphate, 0.83 mM EDTA, 0.083% gelatin, 0.1 mM glutathione, 0.83 mM calcium chloride, 0.012 mM indomethacin) at pH 7.0 and 37° C. for 5 min. The reaction was initiated by the addition of 20 μL of a solution of arachidonic acid in phosphate buffer. […] Remaining products were eluted with methanol/water/acetic acid (70:30:1). Activity was measured as the total radioactivity in the 5-LO products, and inhibition was calculated at (1-D/C)×100%, where D is the activity in the presence of the test compound and C is the control activity.

| SMILES | IC50 |
| --- | --- |
| CN(O)C=CC(=O)c1ccc(OCc2ccccc2)cc1 [Example 1a, 1-(4-(Benzyloxy)phenyl)-3-(N-hydoxy-N-methyl)aminoprop-2-en-1-one] | 1.6 µM |
| CC(c1ccc2ccccc2c1)N(O)C=CC(=O)c1ccc2ccccc2c1 (stereo not drawn) [Example 1b] | 2.2 µM |
| O=C(C=CN(O)C1CCCCC1)c1ccc2ccccc2c1 [Example 1c] | 2.5 µM |
| O=C(C=CN(O)Cc1ccc(OCc2ccccc2)cc1)C1CC1 [Example 1e] | 3.1 µM |
| CN(O)C=CC(=O)c1cc2ccccc2s1 [Example 1i] | 0.44 µM |
| O=C(C=CN(O)Cc1ccc2ccccc2c1)C1CC1 [Example 1j] | 1.5 µM |
| O=C(C=CN(O)Cc1ccccc1)c1ccc2ccccc2c1 [Example 2a, 1-(2-naphthyl)-3-(N-hydoxy-N-benzyl) aminoprop-2-en-1-one] | 2.3 µM |
| O=C(C=CN(O)c1ccccc1)c1ccc2ccccc2c1 [Example 2b] | 1.1 µM |
| O=C(C=CN(O)Cc1ccccc1)c1ccc(Cl)cc1 [Example 2e] | 0.25 µM |
| CC(=O)C=CN(O)Cc1ccc(OCc2ccccc2)cc1 [Example 3a] | 7.7 µM |

Test system: not given
Assay: not given
Settings: cited from earlier work

| SMILES | effect of inhaled LTC4 |
| --- | --- |
| CCCCC/C=C\C\C=C/C=C/C=C/[C@@H](SC[C@H](NC(=O)CC[C@H](N)C(=O)O)C(=O)NCC(=O)O)[C@@H](O)CCCC(=O)O [LTC4] | causes the immediate development of symptoms resembling those of an asthmatic attack |

Test system: not given
Assay: not given
Settings: times the activity of histamine; cited from earlier work

| SMILES | spasmogen activity relative to histamine |
| --- | --- |
| CCCCC/C=C\C\C=C/C=C/C=C/[C@@H](SC[C@H](NC(=O)CC[C@H](N)C(=O)O)C(=O)NCC(=O)O)[C@@H](O)CCCC(=O)O [LTC4] | 1000 times |
| CCCCC/C=C\C\C=C/C=C/C=C/[C@@H](SC[C@H](N)C(=O)NCC(=O)O)[C@@H](O)CCCC(=O)O [LTD4] | 1000 times |
| CCCCC/C=C\C\C=C/C=C/C=C/[C@@H](SC[C@H](N)C(=O)O)[C@@H](O)CCCC(=O)O [LTE4] | 1000 times |
